Legend:
[1] = LNP size, PDI and zeta potential by Dynamic Light Scattering (Method A); format: physicochemical; details: LNP formulated by Method A; for Zeta potential (mV): 1xPBS pH 7.4; for PDI / Size (nm): DLS; for Size (nm): Luciferase-mRNA loaded
Experimental: (§1) The synthesized lipids were tested in term of in vitro transfection efficacy and toxicity on HeLa cells. In order to perform the mentioned biological tests, appropriate LNPs had to be formulated from the synthesized lipids. The formulation technique was different in Method A and B. The particle size, PDI and zeta potential of resulting LNPs were determined by means of Dynamic Light Scattering technique (DLS). Prior to biological testing the encapsulation efficiency (EE) of the loaded LNPs was determined by using RiboGreen RNA assay. In case of Method A Luciferase-mRNA while in case of Method B GFP-mRNA was transfected into the cells. In parallel with the transfection experiments, toxicity of the investigated LNPs was determined, in case of Method A resazurin assay while in case of Method B MTT assay was used. In the case of some lipids, the apparent pKa in LNPs was determined by using TNS titration based on the method described: Angew Chem Int Ed Engl. 2012, 51 (34), 8529-8533, doi: 10.1002/anie.201203263).
• 1. If needed, prepare stock solutions by solving known amounts of lipid powder into an appropriate solvent. The recommended solvent is Ethanol and the recommended concentration is typically in the range 10-50 mM. Higher concentrations are preferred to allow flexibility on mRNA-LNP concentration. • 2. Remove the lipid stock solutions from the −20° C. freezer. For long-term storage, −80° C. is used. • 3. Check the vials for precipitation, DOPE (CAS #4004-05-1) (20 mM) and DSPE-PEG (CAS #474922-26-4) (5 mM) may need a 5-30 minute incubation step at 37° C. with intermittent vortexing to resuspend all contents. […] As a last resort, lipids may be heated to 50° C. to resuspend, time should be kept as short as possible to prevent oxidation or other modifying or degradative processes. • 4. Mix the lipids by vortexing for 2 minutes. • 5. […] Cooling the solution prevent excessive evaporation of ethanol or similar solvents upon opening. • 6. Meanwhile, thaw the RNA samples, including the latest SecNLuc control, by inserting the frozen tube in a room temperature aluminium block. • 7. Prepare for each LNP-formulation with identical mRNA component, an RNA master mix according to Table 1 below in a fresh tube. Use of a master mix allows more precise comparison of lipid formulations relative to each other. Split the master mix over a number of fresh tubes equal to the number of samples+controls. Each tube contains 375 μl of mRNA in 10 mM Citrate pH 4.0. • 8. Prepare for each LNP formulation with identical lipid composition a Lipid master mix according to Table 1 below in a fresh tube, exclude the lipid of interest. Use of a master mix allows more precise comparison of the novel ionizable lipid relative to each other. Split the master mix over a number of fresh tubes equal to the number of samples+controls. Each tube contains 65.5 μl of lipid master mix. • 9. Add the ionizable lipid of interest to the equally divide lipid master mix. Mix well by pipetting up and down. Label the tube according to the ionizable lipid used. • 10. Power on the ‘L 1 formulation machine’ (L 1 FM) and allow it to do a calibration of motor positions.
• 18. Fill a fresh syringe (C) through a blunt 18 G stainless steel needle with the previously prepared RNA mixture of step 6. The volume should be approximately […] of total formulation volume+25 μl (dead-volume). Make sure to remove all air bubbles by tapping. • 19. Fill a fresh syringe (D) through a blunt 18 G stainless steel needle with the Lipid master mix. The volume should be approximately 35% of total formulation volume+25 μl (dead-volume). Again, Make sure to remove all bubbles. • 20. Attach the syringes in the correct orientation, syringe A on the left and syringe B on the right • 21. Load the ‘Receiving station’ with appropriate sized collection containers (2 ml Eppendorf tubes). • 22. Press the microfluidic chip to the back of the machine with your thumb and hold, press the ‘Button 1’ (40 g). […]

[2] = Encapsulation efficiency, RiboGreen RNA assay (Method A); format: physicochemical; details: LNP formulated by Method A
Experimental: as §1
• 1. Preparation of sample stock solutions: In the top row of the 96-well plate (Row A in the plate), add 297 μL of TE buffer pH 7.4 to a single well for each sample plus a single well for a PBS blank using a multichannel pipette. • 2. Add 3 μL of sample (at 0.5 mg/ml) to these wells for a final volume of 300 μL. Add 3 μL of PBS to the blank well. Pipette to mix. This is your stock solution for each sample. The final RNA concentration of these stock solutions should be approximately 4-7 μg/mL. • 3. mRNA-LNP sample setup: • a. Add 50 μL of TE buffer pH 7.5 to the two wells directly below each sample (Rows B and C in the plate). • b. Add 50 μL of sample stock solution from Row A into the wells in Rows B and C (this assay is run in duplicate. All liquid handling should be done using a multichannel pipette). • c. Add 50 μL of Triton buffer to the wells in Rows D and E (in the plate) below each sample. • d. Add 50 μL of sample stock solution from Row A into the wells in Rows D and E. • 4. RiboGreen RNA standard curve setup: Dilute the RNA standard to produce an RNA stock at a final concentration of 20 μg/mL in TE buffer pH 7.4. The final volume should be 150 μL. Set up a standard curve (in duplicate) as using the RNA stock (20 μg/mL siRNA), TE buffer pH 7.5, and Triton buffer according the Table 2 below.
• 5. Once samples and standard curve are plated, incubate the plate at 37° C. for 10 min to lyse mRNA-LNP in the presence of Triton X-100. • 6. Meanwhile, prepare RiboGreen Solution: Sum the total number of sample wells and standard curve wells. Add three to this number, and multiply the total by 100. This is the total volume, in μL, of RiboGreen Solution needed for this assay. In a 15 mL RNAse-free Falcon tube, dilute the RiboGreen Reagent 1:100 into TE buffer pH 7.5 to the total volume calculated. • 7. Addition of RiboGreen Solution and sample readings: Remove a 96-well plate from 37° C. incubator; let it cool to room temperature as RiboGreen binding is somewhat temperature dependent. Add 100 μL of RiboGreen Solution to each well. Pop any air bubbles with a needle. Read using fluorescent plate reader (excitation=480, emission=525). • 8. Sample analysis: Use the data generated by the RiboGreen standard curve to calculate the concentration of mRNA. Transfection Efficiency with Luciferase-mRNA (Method A)

Row | Compound | Zeta potential (mV) [1] [mV] | PDI [1] | Size (nm) [1] [nm] | EE (%) [2] [%]
1 | CCCCCCCCOC(CCCCCN(CCCCO)CCC[C@@H](C)C1CCC2C3CCC4C[C@H](OC)CC[C@]4(C)C3CC[C@@]21C)O[Si](C)(C)O[Si](C)(C)CCCCCCCC (stereo partly drawn) [Example 218, 4-(((4R)-4-((3R,10S,13R)-3-methoxy-10,13-dimethylhexadecahydro-1H-cyclopenta[a]phenanthren-17-yl)pentyl)(6-(octyloxy)-6-((1,1,3,3-tetramethyl-3-octyldisiloxaneyl)oxy)hexyl)amino)butan-1-ol] | −12.88 | 0.028 | 165.6 | 97
2 | CC/C=C\C/C=C\C/C=C\C/C=C\C/C=C\CCCCN(CCCCO)CCCCCCOC(CCCCCCC)O[Si](C)(C)OCC(CCCCCC)CCCCCCCC (stereo not shown) [Example 203, 13-heptyl-18-hexyl-5-((5Z,8Z,11Z,14Z,17Z)-icosa-5,8,11,14,17-pentaen-1-yl)-15,15-dimethyl-12,14,16-trioxa-5-aza-15-silahexacosan-1-ol] | −14.95 | 0.13 | 139.2 | 94
3 | CCCCCCCCCCSC(CCCC)C(=O)OCCCCCCN(CCCCO)CCCCCC(OCCCCCCCC)O[Si](C)(C)O[Si](C)(C)CCCCCCCC (stereo not shown) [Example 170, 6-((4-hydroxybutyl)(6-(octyloxy)-6-((1,1,3,3-tetramethyl-3-octyldisiloxaneyl)oxy)hexyl)amino)hexyl 2-(decylthio)hexanoate] | −14.68 | 0.210 | 207.5 | 94
4 | CCCCCCCCC(SCCCCC)C(=O)OCCCCCCN(CCCCO)CCCCCCOC(CCCCCCC)O[Si](C)(C)O[Si](C)(C)CCCCCCCC (stereo not shown) [Example 182, 15-heptyl-7-(4-hydroxybutyl)-17,17,19,19-tetramethyl-14,16,18-trioxa-7-aza-17,19-disilaheptacosyl 2-(pentylthio)decanoate] | −12.56 | 0.045 | 136.8 | 96
5 | CCCCCCCCOC(CCCCCN(CCO)CCCCCCCC(=O)OC(CCCCCCCC)CCCCCCCC)O[Si](C)(C)CCCCCCCC (stereo not shown) [Example 189, heptadecan-9-yl 8-((6-((dimethyl(octyl)silyl)oxy)-6-(octyloxy)hexyl)(2-hydroxyethyl)amino)octanoate] | −10.68 | 0.066 | 170 | 94
6 | CCCCCCCCO[Si](C)(C)OC(CCCCCCC)OCCCCCCN(CCCCO)CCC[C@@H](C)C1CCC2C3CCC4C[C@H](OC)CC[C@]4(C)C3CC[C@@]21C (stereo partly drawn) [Example 217, 13-heptyl-5-((4R)-4-((3R,10S,13R)-3-methoxy-10,13-dimethylhexadecahydro-1H-cyclopenta[a]phenanthren-17-yl)pentyl)-15,15-dimethyl-12,14,16-trioxa-5-aza-15-silatetracosan-1-ol] | −13.68 | 0.897 | 178.1 | 96
7 | CCCCCCCCCCSC(CCCC)C(=O)OCCCCCCN(CCCCO)CCCCCCOC(CCCCCCC)O[Si](C)(C)OCCCCCCCC (stereo not shown) [Example 169, 15-heptyl-7-(4-hydroxybutyl)-17,17-dimethyl-14,16,18-trioxa-7-aza-17-silahexacosyl 2-(decylthio)hexanoate] | −13.9 | 0.09 | 159.7 | 95
8 | CC/C=C\C/C=C\C/C=C\C/C=C\C/C=C\CCCCN(CCCCO)CCCCCC(OCCCCCCCC)O[Si](C)(C)CCCCCCCC (stereo not shown) [Example 194, 4-((6-((dimethyl(octyl)silyl)oxy)-6-(octyloxy)hexyl)((5Z,8Z,11Z,14Z,17Z)-icosa-5,8,11,14,17-pentaen-1-yl)amino)butan-1-ol] | −16.45 | 0.085 | 153.5 | 96
9 | CCCCCCCCOC(CCCCCC)O[Si](C)(C)OCCCCCCN(CCCCO)CCCCCCOC(=O)C(CCCCCC)CCCCCCCC (stereo not shown) [Example 142, 17-hexyl-7-(4-hydroxybutyl)-15,15-dimethyl-14,16,18-trioxa-7-aza-15-silahexacosyl 2-hexyldecanoate] | −12.8 | 0.06 | 125.1 | 96
10 | CCCCCCCCOC(CCCCCN(CCCCO)CCC[C@@H](C)C1CCC2C3CCC4C[C@H](OC)CC[C@]4(C)C3CC[C@@]21C)O[Si](C)(C)OCCCCCCCC (stereo partly drawn) [Example 216, 5-((4R)-4-((3R,10S,13R)-3-methoxy-10,13-dimethylhexadecahydro-1H-cyclopenta[a]phenanthren-17-yl)pentyl)-13,13-dimethyl-11-(octyloxy)-12,14-dioxa-5-aza-13-siladocosan-1-ol] | −15.48 | 0.228 | 269.1 | 91
